According to patent US20210032257A1, “(E)-1-(4-(DIMETHYLAMINO)BUT-2-ENOYL)PYRROLIDIN-3-YL 4-((3-ISOPROPYL-5-METHYLPYRAZOLO[1,5-A]PYRIMIDIN-7-YL)AMINO)PIPERIDINE-1-CARBOXYLATE FOR INHIBITING CDK7” (Eli Lilly and Company, priority 2017, published 2021):

Experiments:
Assay in all cases: Biomarker study proliferation (CellTiter-Glo)
Format in all cases: cell-based
A673 = test system: A673
Outline: (§1)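 Cells seeded at 5000/well, incubated overnight at 37 °C, 5% CO2, then treated with 10-point 1:3 dilutions from a 10 mM DMSO working solution. After 7 days, ATP luminescence was read by CellTiter-Glo. Classed insensitive (IC50≥1 μM), cytostatic (IC50<1 μM, inhibition <70%) or cytotoxic (IC50<1 μM, inhibition ≥70%).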

DMS53 = test system: DMS53
Outline: as §1

HCC70 = test system: HCC70
Outline: as §1

HEC108 = test system: HEC108
Outline: as §1

HEC1A = test system: HEC1A
Outline: as §1

HEPG2 = test system: HEPG2
Outline: as §1

HEYA8 = test system: HEYA8
Outline: as §1

HLE = test system: HLE
Outline: as §1

IMR32 = test system: IMR32
Outline: as §1

MDAMB157 = test system: MDAMB157
Outline: as §1

MKN74 = test system: MKN74
Outline: as §1

NCIH1299 = test system: NCIH1299
Outline: as §1

NCIH1975 = test system: NCIH1975
Outline: as §1

NCIH441 = test system: NCIH441
Outline: as §1

NCIH520 = test system: NCIH520
Outline: as §1

NCIH82 = test system: NCIH82
Outline: as §1

SJRH30 = test system: SJRH30
Outline: as §1

SNU308 = test system: SNU308
Outline: as §1

[1] = 168 h, read-out: Anti-proliferation effect IC50

Cc1cc(NC2CCN(C(=O)O[C@H]3CCN(C(=O)/C=C/CN(C)C)C3)CC2)n2ncc(C(C)C)c2n1 [Example 1, [(3S)-1-[(E)-4-(dimethylamino)but-2-enoyl]pyrrolidin-3-yl] 4-[(3-isopropyl-5-methyl-pyrazolo[1,5-a]pyrimidin-7-yl)amino]piperidine-1-carboxylate]
Anti-proliferation effect % Inh. (A673; A673, BONE, 7 days): 96%
Anti-proliferation effect Outcome (A673; A673, BONE, 7 days): Cytotoxic (cytotoxic (IC50<1 μM and % inhibition ≥70%))
IC50 (A673; Homo sapiens, A673, 168 h, read-out: Anti-proliferation effect IC50): 14 nM
Anti-proliferation effect % Inh. (DMS53; DMS53, LUNG, 7 days): 66%
Anti-proliferation effect Outcome (DMS53; DMS53, LUNG, 7 days): Cytostatic (cytostatic (IC50<1 μM and % inhibition <70%))
IC50 (DMS53; Homo sapiens, DMS-53, 168 h, read-out: Anti-proliferation effect IC50): 118 nM
Anti-proliferation effect % Inh. (HCC70; HCC70, BREAST, 7 days): 89%
Anti-proliferation effect Outcome (HCC70; HCC70, BREAST, 7 days): Cytotoxic (cytotoxic (IC50<1 μM and % inhibition ≥70%))
IC50 (HCC70; Homo sapiens, HCC70, 168 h, read-out: Anti-proliferation effect IC50): 38 nM
IC50 (HEC108; [1]): 31 nM
Anti-proliferation effect % Inh. (HEC108; HEC108, ENDOMETRIUM, 7 days): 90%
Anti-proliferation effect Outcome (HEC108; HEC108, ENDOMETRIUM, 7 days): Cytotoxic (cytotoxic (IC50<1 μM and % inhibition ≥70%))
Anti-proliferation effect % Inh. (HEC1A; HEC1A, ENDOMETRIUM, 7 days): 56%
Anti-proliferation effect Outcome (HEC1A; HEC1A, ENDOMETRIUM, 7 days): Cytostatic (cytostatic (IC50<1 μM and % inhibition <70%))
IC50 (HEC1A; Homo sapiens, HEC-1-A, 168 h, read-out: Anti-proliferation effect IC50): 162 nM
Anti-proliferation effect % Inh. (HEPG2; HEPG2, LIVER, 7 days): 78%
Anti-proliferation effect Outcome (HEPG2; HEPG2, LIVER, 7 days): Cytotoxic (cytotoxic (IC50<1 μM and % inhibition ≥70%))
IC50 (HEPG2; Homo sapiens, HepG2, 168 h, read-out: Anti-proliferation effect IC50): 28 nM
IC50 (HEYA8; HEY A8, 168 h, read-out: Anti-proliferation effect IC50): 112 nM
Anti-proliferation effect % Inh. (HEYA8; HEYA8, OVARY, 7 days): 89%
Anti-proliferation effect Outcome (HEYA8; HEYA8, OVARY, 7 days): Cytotoxic (cytotoxic (IC50<1 μM and % inhibition ≥70%))
IC50 (HLE; Homo sapiens, 168 h, read-out: Anti-proliferation effect IC50): 30 nM
Anti-proliferation effect % Inh. (HLE; LIVER, 7 days): 77%
Anti-proliferation effect Outcome (HLE; LIVER, 7 days): Cytotoxic (cytotoxic (IC50<1 μM and % inhibition ≥70%))
IC50 (IMR32; Homo sapiens, IMR-32, 168 h, read-out: Anti-proliferation effect IC50): 2 nM
Anti-proliferation effect % Inh. (IMR32; IMR32, CNS, 7 days): 100%
Anti-proliferation effect Outcome (IMR32; IMR32, CNS, 7 days): Cytotoxic (cytotoxic (IC50<1 μM and % inhibition ≥70%))
IC50 (MDAMB157; Homo sapiens, MDA-MB-157, 168 h, read-out: Anti-proliferation effect IC50): 866 nM
Anti-proliferation effect % Inh. (MDAMB157; MDAMB157, BREAST, 7 days): 39%
Anti-proliferation effect Outcome (MDAMB157; MDAMB157, BREAST, 7 days): Cytostatic (cytostatic (IC50<1 μM and % inhibition <70%))
IC50 (MKN74; Homo sapiens, MKN-74, 168 h, read-out: Anti-proliferation effect IC50): 73 nM
Anti-proliferation effect % Inh. (MKN74; MKN74, STOMACH, 7 days): 71%
Anti-proliferation effect Outcome (MKN74; MKN74, STOMACH, 7 days): Cytotoxic (cytotoxic (IC50<1 μM and % inhibition ≥70%))
IC50 (NCIH1299; Homo sapiens, NCI-H1299, 168 h, read-out: Anti-proliferation effect IC50): 195 nM
Anti-proliferation effect % Inh. (NCIH1299; NCIH1299, LUNG, 7 days): 44%
Anti-proliferation effect Outcome (NCIH1299; NCIH1299, LUNG, 7 days): Cytostatic (cytostatic (IC50<1 μM and % inhibition <70%))
IC50 (NCIH1975; Homo sapiens, NCI-H1975, 168 h, read-out: Anti-proliferation effect IC50): 21 nM
Anti-proliferation effect % Inh. (NCIH1975; NCIH1975, LUNG, 7 days): 90%
Anti-proliferation effect Outcome (NCIH1975; NCIH1975, LUNG, 7 days): Cytotoxic (cytotoxic (IC50<1 μM and % inhibition ≥70%))
IC50 (NCIH441; Homo sapiens, NCI-H441, 168 h, read-out: Anti-proliferation effect IC50): 14 nM
Anti-proliferation effect % Inh. (NCIH441; NCIH441, LUNG, 7 days): 84%
Anti-proliferation effect Outcome (NCIH441; NCIH441, LUNG, 7 days): Cytotoxic (cytotoxic (IC50<1 μM and % inhibition ≥70%))
IC50 (NCIH520; Homo sapiens, NCI-H520, 168 h, read-out: Anti-proliferation effect IC50): 82 nM
Anti-proliferation effect % Inh. (NCIH520; NCIH520, LUNG, 7 days): 77%
Anti-proliferation effect Outcome (NCIH520; NCIH520, LUNG, 7 days): Cytotoxic (cytotoxic (IC50<1 μM and % inhibition ≥70%))
IC50 (NCIH82; Homo sapiens, NCI-H82, 168 h, read-out: Anti-proliferation effect IC50): 699 nM
Anti-proliferation effect % Inh. (NCIH82; NCIH82, LUNG, 7 days): 22%
Anti-proliferation effect Outcome (NCIH82; NCIH82, LUNG, 7 days): Cytostatic (cytostatic (IC50<1 μM and % inhibition <70%))
IC50 (SJRH30; Homo sapiens, SJRH30, 168 h, read-out: Anti-proliferation effect IC50): 39 nM
Anti-proliferation effect % Inh. (SJRH30; SJRH30, SOFT TISSUE, 7 days): 62%
Anti-proliferation effect Outcome (SJRH30; SJRH30, SOFT TISSUE, 7 days): Cytostatic (cytostatic (IC50<1 μM and % inhibition <70%))
IC50 (SNU308; [1]): 184 nM
Anti-proliferation effect % Inh. (SNU308; SNU308, BILIARY, 7 days): 61%
Anti-proliferation effect Outcome (SNU308; SNU308, BILIARY, 7 days): Cytostatic (cytostatic (IC50<1 μM and % inhibition <70%))
